The target in assay [1] is His6-ERα298-554 WT (ERα ligand-binding domain) (Homo sapiens (Human), UniProt P03372). The experiment in a line: Test A: biochemical antagonist activity, LanthaScreen TR-FRET ERα coactivator assay, WT. Particulars: protocol with 3 nM estradiol; read-out: Antagonism WT IC50. An outline of the steps: (§1)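 IC50 values come from a 4-parameter logistic fit of the 520:495 nm TR-FRET ratio after overnight room-temperature incubation. The mix held 0.5 nM ERα 298–554 LBD, Tb-labelled anti-His6 antibody, 250 nM PGC1a peptide and 3 nM or 10 nM estradiol, pH 7.4 phosphate buffer with DTT.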
His6-ERα298-554 WT (ERα ligand-binding domain), sequence (P03372 298-554): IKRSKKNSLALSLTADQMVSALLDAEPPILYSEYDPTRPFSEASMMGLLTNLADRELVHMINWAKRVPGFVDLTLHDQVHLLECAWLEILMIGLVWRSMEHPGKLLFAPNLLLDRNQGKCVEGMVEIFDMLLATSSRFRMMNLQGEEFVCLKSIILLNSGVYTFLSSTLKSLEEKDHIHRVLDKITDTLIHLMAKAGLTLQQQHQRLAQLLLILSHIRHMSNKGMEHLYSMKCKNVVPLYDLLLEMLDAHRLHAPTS
(In general: TR-FRET usually uses a lanthanide donor and a delayed reading to cut background.)

Assay [2] addresses His6-ERα298-554 D538G mutant (ERα ligand-binding domain) (Homo sapiens (Human), UniProt P03372, D538G). As to the kind of experiment: Test A: biochemical antagonist activity, LanthaScreen TR-FRET ERα coactivator assay, D538G mutant. The settings on record: protocol with 3 nM estradiol; read-out: Antagonism D538G IC50. An outline of the steps:
as §1

Assay [3] addresses His6-ERα298-554 Y537S mutant (ERα ligand-binding domain) (Homo sapiens (Human), UniProt P03372, Y537S). The experiment in a line: Test A: biochemical antagonist activity, LanthaScreen TR-FRET ERα coactivator assay, Y537S mutant. The settings on record: protocol with 3 nM estradiol; read-out: Antagonism Y537S IC50. An outline of the steps: as §1
The target of assay [4] is ERα in MCF7 cells (Homo sapiens (Human), UniProt P03372). The experiment in a line: Test C: estrogen receptor degradation activity, ERα in cell western assay in MCF7 cells. Format: cell-based. Particulars: for DC50: 4 hours post compound addition, ERα in cell western, read-out: Degradation IC50; for % Degradation at 3 μM: 4 hours, relative to fulvestrant. In outline: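 In-cell western, MCF7, 4 h compound exposure, 3–0.000018 μM final, 9 points, 1:5 steps. Formalin/Triton fix, anti-ER rabbit mAb overnight cold, Alexa 488 secondary plus 2 μM Syto-64. Green intensity = ERα, red = DNA; no-primary wells as background.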
ERα in MCF7 cells, sequence (P03372 whole entry): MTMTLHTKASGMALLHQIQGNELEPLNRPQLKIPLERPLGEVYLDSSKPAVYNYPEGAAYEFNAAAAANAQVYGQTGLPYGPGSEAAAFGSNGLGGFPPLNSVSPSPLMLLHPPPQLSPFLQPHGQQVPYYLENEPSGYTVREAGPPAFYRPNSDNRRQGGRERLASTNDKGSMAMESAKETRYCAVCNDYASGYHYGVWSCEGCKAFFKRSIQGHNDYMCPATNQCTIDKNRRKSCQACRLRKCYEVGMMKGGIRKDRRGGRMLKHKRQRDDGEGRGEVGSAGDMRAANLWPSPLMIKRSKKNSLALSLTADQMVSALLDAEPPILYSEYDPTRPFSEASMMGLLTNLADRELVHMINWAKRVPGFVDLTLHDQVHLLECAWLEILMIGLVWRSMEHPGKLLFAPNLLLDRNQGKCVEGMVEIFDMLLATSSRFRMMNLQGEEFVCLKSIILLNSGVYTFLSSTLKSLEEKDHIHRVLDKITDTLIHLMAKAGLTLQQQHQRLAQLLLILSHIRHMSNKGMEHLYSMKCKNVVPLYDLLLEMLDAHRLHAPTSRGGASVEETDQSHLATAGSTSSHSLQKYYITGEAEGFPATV

The values below come from patent publication US11149031B2, “Substituted N-(3-fluoropropyl)-pyrrolidine compounds, processes for their preparation and therapeutic uses thereof” (SANOFI, priority 2016, dated 2021).

SMILES strings stand for the structures.

His6-ERα298-554 Y537S mutant (ERα ligand-binding domain), sequence (P03372 298-554 Y537S): as the sequence (P03372 298-554) above, with Y240S counted along it
His6-ERα298-554 D538G mutant (ERα ligand-binding domain), sequence (P03372 298-554 D538G): as the sequence (P03372 298-554) above, with D241G counted along it

As to `Oc1ccc2c(c1)SCCC(c1ccc(Cl)c(F)c1)=C2c1ccc(O[C@H]2CCN(CCCF)C2)cc1` [Example 161, 4-(4-chloro-3-fluoro-phenyl)-5-[4-[(3S)-1-(3-fluoropropyl)pyrrolidin-3-yl]oxyphenyl]-2,3-dihydro-1-benzothiepin-8-ol], the IC50 in assay [1] was found to be 6 nM; in assay [2], 31 nM; in assay [3] it was 22 nM. The DC50 in assay [4] came to 0.7 nM. Besides, in assay [4], the “% Degradation at 3 μM” value stood at 93%.
On the same counts, the results for `Cc1c(Cl)cccc1C1=C(c2ccc(O[C@H]3CCN(CCCF)C3)cc2)c2ccc(O)cc2SCC1` [Example 163, 4-(3-chloro-2-methyl-phenyl)-5-[4-[(3S)-1-(3-fluoropropyl)pyrrolidin-3-yl]oxyphenyl]-2,3-dihydro-1-benzothiepin-8-ol] are 5 nM, 24 nM, 19 nM, 0.6 nM and 94%.
In the case of `Cc1cc(F)ccc1C1=C(c2ccc(O[C@H]3CCN(CCCF)C3)cc2)c2ccc(O)cc2SCC1` [Example 165, 4-(4-fluoro-2-methyl-phenyl)-5-[4-[(3S)-1-(3-fluoropropyl)pyrrolidin-3-yl]oxyphenyl]-2,3-dihydro-1-benzothiepin-8-ol], the half-inhibitory concentration (IC50) in assay [1] turned out to be 3 nM; in assay [2], 11 nM; in assay [3], 8 nM. Besides, the DC50 in assay [4] worked out at 0.2 nM. Besides, the “% Degradation at 3 μM” value in assay [4] is 90%.
As for `Oc1ccc2c(c1)SCCC(c1ccc(Cl)cc1F)=C2c1ccc(O[C@H]2CCN(CCCF)C2)cc1` [Example 167, 4-(4-chloro-2-fluoro-phenyl)-5-[4-[(3S)-1-(3-fluoropropyl)pyrrolidin-3-yl]oxyphenyl]-2,3-dihydro-1-benzothiepin-8-ol], the IC50 in assay [1] came out at 5 nM; in assay [2] it was 26 nM; in assay [3], 16 nM. Moreover, in assay [4], the DC50 is 0.5 nM. Also, the “% Degradation at 3 μM” value in assay [4] turned out to be 87%.
In the case of `Oc1ccc2c(c1)SCCC(c1cccc(F)c1Cl)=C2c1ccc(O[C@H]2CCN(CCCF)C2)cc1` [Example 168, 4-(2-chloro-3-fluoro-phenyl)-5-[4-[(3S)-1-(3-fluoropropyl)pyrrolidin-3-yl]oxyphenyl]-2,3-dihydro-1-benzothiepin-8-ol], the results for the concentration for half-maximal inhibition (IC50) in assay [1], in assay [2] and in assay [3] were 3 nM, 14 nM and 9 nM, respectively. Besides, the DC50 in assay [4] worked out at 0.7 nM. In addition, in assay [4], the “% Degradation at 3 μM” value is 86%.
As for `Oc1ccc(C2=C(c3ccc(O[C@H]4CCN(CCCF)C4)cc3)c3ccc(O)cc3SCC2)c(F)c1` [Example 169, 4-(2-fluoro-4-hydroxy-phenyl)-5-[4-[(3S)-1-(3-fluoropropyl)pyrrolidin-3-yl]oxyphenyl]-2,3-dihydro-1-benzothiepin-8-ol], the IC50 is 2 nM in assay [1], 5 nM in assay [2] and 3 nM in assay [3]. Also, in assay [4], the DC50 is 0.2 nM. Further, in assay [4], the “% Degradation at 3 μM” value was 85%.
`Oc1ccc2c(c1)C(c1ccc(O[C@H]3CCN(CCCF)C3)cc1)=C(c1cccc(F)c1Cl)CCS2` [Example 170, 4-(2-chloro-3-fluoro-phenyl)-5-[4-[(3S)-1-(3-fluoropropyl)pyrrolidin-3-yl]oxyphenyl]-2,3-dihydro-1-benzothiepin-7-ol]: the IC50 came out at 18 nM in assay [1], 129 nM in assay [2] and 82 nM in assay [3]. Also, the DC50 in assay [4] came to 1 nM. For the same compound, the “% Degradation at 3 μM” value in assay [4] is given as 81%.
As for `Cc1ccc(C2=C(c3ccc(O[C@H]4CCN(CCCF)C4)cc3)c3cc(O)ccc3SCC2)c(F)c1` [Example 171, 4-(2-fluoro-4-methyl-phenyl)-5-[4-[(3S)-1-(3-fluoropropyl)pyrrolidin-3-yl]oxyphenyl]-2,3-dihydro-1-benzothiepin-7-ol], the results for the IC50 in assay [1], in assay [2] and in assay [3] were 24 nM, 140 nM and 87 nM, respectively. In addition, in assay [4], the DC50 is 0.2 nM. Also, the “% Degradation at 3 μM” value in assay [4] amounted to 85%.

As usually defined, the IC50 is the point on the concentration scale where inhibition reaches its midpoint.
